Drawing on patent publication US8629157B2, “Pyrrolidine compounds which modulate the CB2 receptor” (Boehringer Ingelheim International GmbH, priority 2009, dated 2014), this text covers EC50 for 33 compounds.

Sequence of human CB2R (P34972 whole entry): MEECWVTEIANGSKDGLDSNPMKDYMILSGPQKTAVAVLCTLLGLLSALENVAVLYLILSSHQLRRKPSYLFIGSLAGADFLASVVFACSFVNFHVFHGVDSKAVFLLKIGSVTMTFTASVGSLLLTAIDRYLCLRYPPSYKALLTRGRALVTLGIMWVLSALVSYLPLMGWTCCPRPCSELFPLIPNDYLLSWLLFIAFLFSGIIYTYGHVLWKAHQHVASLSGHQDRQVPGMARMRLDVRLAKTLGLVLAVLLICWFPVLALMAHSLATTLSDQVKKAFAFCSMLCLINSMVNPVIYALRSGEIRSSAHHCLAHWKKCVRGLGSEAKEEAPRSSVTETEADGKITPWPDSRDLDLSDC

One test addresses human CB2R (Homo sapiens, UniProt P34972). Briefly: CB2R mediated modulation of cAMP synthesis.
Conditions: not given
The format is cell-based. The protocol:
B. CB2R Mediated Modulation of cAMP Synthesis:
Compounds of the invention were evaluated for their CB2 agonist or inverse agonistic activity in accordance with the following experimental method.
CHO cells expressing human CB2R (Euroscreen) were plated at a density of 5000 cells per well in 384 well plates and incubated overnight at 37° C. After removing the media, the cells were treated with test compounds diluted in stimulation buffer containing 1 mM IBMX, 0.25% BSA and 10 uM Forskolin. The assay was incubated for 30 minutes at 37° C. Cells were lysed and the cAMP concentration was measured using DiscoverX-XS cAMP kit, following the manufacturer's protocol. In this setting, agonists will decrease forskolin induced production of cAMP while inverse agonists will further increase forskolin induced production of cAMP. EC50 of agonists were calculated as follows. The maximal amount of cAMP produced by forskolin compared to the level of cAMP inhibited by 1 uM CP55940 is defined as 100%. […] Data was analyzed using a four-parameter logistic model. (Model 205 of XLfit 4.0).
The compound `CC(C)(C)c1cc(NC(=O)[C@@H]2C[C@@H](O)CN2c2ccc(C(F)(F)F)cn2)on1` [(2S,4R)-4-Hydroxy-1-(5-trifluoromethyl-pyridin-2-yl)-pyrrolidine-2-carboxylic acid (3-tert-butyl-isoxazol-5-yl)-amide] had an EC50 of 0.433 nM. As for `CC(C)(C)c1cc(NC(=O)[C@@H]2C[C@@H](O)CN2c2ccc(C(F)(F)F)cn2)no1` [(2S,4R)-4-Hydroxy-1-(5-trifluoromethyl-pyridin-2-yl)-pyrrolidine-2-carboxylic acid (5-tert-butyl-isoxazol-3-yl)-amide], it took 161 nM to reach a half-maximal effect (EC50). The same measure, in the same setting: the value for `CC(C)(C)c1cc(NC(=O)[C@@H]2C[C@@H](O)CN2C2CCOCC2)on1` [(2S,4R)-4-Hydroxy-1-(tetrahydro-pyran-4-yl)-pyrrolidine-2-carboxylic acid (3-tert-butyl-isoxazol-5-yl)-amide] was 328 nM; that for `CCc1sc(NC(=O)[C@@H]2C[C@@H](O)CN2C2CCOCC2)nc1-c1ccccc1` [(2S,4R)-4-Hydroxy-1-(tetrahydro-pyran-4-yl)-pyrrolidine-2-carboxylic acid (5-ethyl-4-phenyl-thiazol-2-yl)-amide] was 58.7 nM.

`CC(C)(C)c1cc(NC(=O)[C@@H]2C[C@@H](O)CN2C2CCOCC2)no1` [(2S,4R)-4-Hydroxy-1-(tetrahydro-pyran-4-yl)-pyrrolidine-2-carboxylic acid (5-tert-butyl-isoxazol-3-yl)-amide]: the EC50 was determined as 363 nM. Still for that read-out and setting: under `CC1CC(NC(=O)[C@@H]2C[C@@H](O)CN2CC2CCOCC2)CC(C)(C)C1` (stereo partly drawn) [(2S,4R)-4-Hydroxy-1-(tetrahydro-pyran-4-ylmethyl)-pyrrolidine-2-carboxylic acid (3,3,5-trimethyl-cyclohexyl)-amide] stands 219 nM; under `O=C(Nc1nc(-c2ccccc2)ns1)[C@@H]1C[C@@H](O)CN1CC1CCOCC1` [(2S,4R)-4-Hydroxy-1-(tetrahydro-pyran-4-ylmethyl)-pyrrolidine-2-carboxylic acid (3-phenyl-1,2,4-thiadiazol-5-yl)-amide], 303 nM; under `O=C(Nc1nc(C2CCCCC2)cs1)[C@@H]1C[C@@H](O)CN1CC1CCOCC1` [(2S,4R)-4-Hydroxy-1-(tetrahydro-pyran-4-ylmethyl)-pyrrolidine-2-carboxylic acid (4-cyclohexyl-thiazol-2-yl)-amide], 150 nM. For the compound `CCc1sc(NC(=O)[C@@H]2C[C@@H](O)CN2CC2CCOCC2)nc1-c1ccccc1` [(2S,4R)-4-Hydroxy-1-(tetrahydro-pyran-4-ylmethyl)-pyrrolidine-2-carboxylic acid (5-ethyl-4-phenyl-thiazol-2-yl)-amide], it took 7.93 nM to reach a half-maximal effect (EC50). The same measure, in the same setting: under `CC(C)(C)c1nnc(NC(=O)[C@@H]2C[C@@H](O)CN2CC2CCOCC2)s1` [(2S,4R)-4-Hydroxy-1-(tetrahydro-pyran-4-ylmethyl)-pyrrolidine-2-carboxylic acid (5-tert-butyl-1,3,4-thiadiazol-2-yl)-amide] stands 69.8 nM. `CC(C)(C)c1cc(NC(=O)[C@@H]2C[C@@H](O)CN2CC2CCOCC2)no1` [(2S,4R)-4-Hydroxy-1-(tetrahydro-pyran-4-ylmethyl)-pyrrolidine-2-carboxylic acid (5-tert-butyl-isoxazol-3-yl)-amide] yielded an EC50 of 3.89 nM. `O=C(Nc1nc(-c2ccc(Cl)cc2)cs1)[C@@H]1C[C@@H](O)CN1CC1CCOCC1` [(2S,4R)-4-Hydroxy-1-(tetrahydro-pyran-4-ylmethyl)-pyrrolidine-2-carboxylic acid [4-(4-chloro-phenyl)-thiazol-2-yl]-amide] came in with a concentration for a half-maximal effect (EC50) of 71.2 nM.

Take `CC(C)(C)c1cc(NC(=O)[C@@H]2C[C@H](O)CN2c2ncc(C(F)(F)F)cc2Cl)no1` [(2S,4S)-1-(3-Chloro-5-trifluoromethyl-pyridin-2-yl)-4-hydroxy-pyrrolidine-2-carboxylic acid (5-tert-butyl-isoxazol-3-yl)-amide]: the EC50 turned out to be 1.35 nM. Same read-out and setting: under `O=C(Nc1nc(-c2ccccc2)ns1)[C@@H]1C[C@H](O)CN1c1ccc(C(F)(F)F)cn1` [(2S,4S)-4-Hydroxy-1-(5-trifluoromethyl-pyridin-2-yl)-pyrrolidine-2-carboxylic acid (3-phenyl-1,2,4-thiadiazol-5-yl)-amide] stands 18.4 nM; under `CC(C)(C)c1cc(NC(=O)[C@@H]2C[C@H](O)CN2c2ccc(C(F)(F)F)cn2)no1` [(2S,4S)-4-Hydroxy-1-(5-trifluoromethyl-pyridin-2-yl)-pyrrolidine-2-carboxylic acid (5-tert-butyl-isoxazol-3-yl)-amide], 27.9 nM; under `CC(C)(C)c1cc(NC(=O)[C@@H]2C[C@H](O)CN2C2CCOCC2)on1` [(2S,4S)-4-Hydroxy-1-(tetrahydro-pyran-4-yl)-pyrrolidine-2-carboxylic acid (3-tert-butyl-isoxazol-5-yl)-amide], 59 nM.

Take `CC(C)(C)c1nc(NC(=O)[C@@H]2C[C@H](O)CN2CC2CCOCC2)sc1C#N` [(2S,4S)-4-Hydroxy-1-(tetrahydro-pyran-4-ylmethyl)-pyrrolidine-2-carboxylic acid (4-tert-butyl-5-cyano-thiazol-2-yl)-amide]: a half-maximal effect (EC50) was put at 380 nM. Still for that read-out and setting: under `CC(C)N1C[C@@H](O)C[C@H]1C(=O)Nc1cc(C(C)(C)C)no1` [(2S,4S)-4-Hydroxy-1-isopropyl-pyrrolidine-2-carboxylic acid (3-tert-butyl-isoxazol-5-yl)-amide] stands 421 nM; under `O=C(Nc1ccc(C(F)(F)F)cn1)[C@H]1CCCN1c1ccc(C(F)(F)F)cc1` [(R)-1-(4-Trifluoromethyl-phenyl)-pyrrolidine-2-carboxylic acid (5-trifluoromethyl-pyridin-2-yl)-amide], 70.7 nM. On the same count and under the same terms, the value for `CC(C)(C)c1nnc(NC(=O)[C@@H]2CCCN2C(=O)N2CCS(=O)(=O)CC2)s1` [(S)-1-(1,1-Dioxo-1l^6-thiomorpholine-4-carbonyl)-pyrrolidine-2-carboxylic acid (5-tert-butyl-1,3,4-thiadiazol-2-yl)-amide] was 436 nM; that for `CC(C)(C)c1cc(NC(=O)[C@@H]2CCC(=O)N2c2cccc(F)c2F)on1` [(S)-1-(2,3-Difluoro-phenyl)-5-oxo-pyrrolidine-2-carboxylic acid (3-tert-butyl-isoxazol-5-yl)-amide] was 261 nM.

`CCC(C)CN1CCC[C@H]1C(=O)Nc1cc(C(C)(C)C)no1` (stereo partly drawn) [(S)-1-(2-Methyl-butyl)-pyrrolidine-2-carboxylic acid (3-tert-butyl-isoxazol-5-yl)-amide] came in with an EC50 of 0.116 nM.

In turn, `CC(C)(C)c1cc(NC(=O)[C@@H]2CCC(=O)N2c2ccc(Cl)c(Cl)c2)on1` [(S)-1-(3,4-Dichloro-phenyl)-5-oxo-pyrrolidine-2-carboxylic acid (3-tert-butyl-isoxazol-5-yl)-amide] returned an EC50 of 16.1 nM. Still for that read-out and setting: the value for `CC(C)(C)c1cc(NC(=O)[C@@H]2CCC(=O)N2c2ccc(Cl)c(Cl)c2)no1` [(S)-1-(3,4-Dichloro-phenyl)-5-oxo-pyrrolidine-2-carboxylic acid (5-tert-butyl-isoxazol-3-yl)-amide] was 49.7 nM. The same measure, in the same setting: the value for `CC(C)(C)c1cc(NC(=O)[C@@H]2CCCN2Cc2ccc(F)c(F)c2)on1` [(S)-1-(3,4-Difluoro-benzyl)-pyrrolidine-2-carboxylic acid (3-tert-butyl-isoxazol-5-yl)-amide] was 0.208 nM.

On to `CC(C)(C)c1cc(NC(=O)[C@@H]2CCC(=O)N2c2ccc(F)c(F)c2)on1` [(S)-1-(3,4-Difluoro-phenyl)-5-oxo-pyrrolidine-2-carboxylic acid (3-tert-butyl-isoxazol-5-yl)-amide], for which a half-maximal effect (EC50) was put at 16 nM.

`CC(C)(C)c1cc(NC(=O)[C@@H]2CCC(=O)N2c2ccc(F)c(F)c2)no1` [(S)-1-(3,4-Difluoro-phenyl)-5-oxo-pyrrolidine-2-carboxylic acid (5-tert-butyl-isoxazol-3-yl)-amide] yielded an EC50 of 64.2 nM. For the compound `CC(C)(C)c1cc(NC(=O)[C@@H]2CCCN2c2ncc(Cl)cc2Cl)on1` [(S)-1-(3,5-Dichloro-pyridin-2-yl)-pyrrolidine-2-carboxylic acid (3-tert-butyl-isoxazol-5-yl)-amide], the EC50 was 0.135 nM.

`CC(C)(C)c1cc(NC(=O)[C@@H]2CCC(=O)N2c2ccc(F)c(Cl)c2)on1` [(S)-1-(3-Chloro-4-fluoro-phenyl)-5-oxo-pyrrolidine-2-carboxylic acid (3-tert-butyl-isoxazol-5-yl)-amide] registered an EC50 of 26.7 nM.

On to `CC(C)(C)c1cc(NC(=O)[C@@H]2CCC(=O)N2c2ccc(F)c(Cl)c2)no1` [(S)-1-(3-Chloro-4-fluoro-phenyl)-5-oxo-pyrrolidine-2-carboxylic acid (5-tert-butyl-isoxazol-3-yl)-amide], for which the midpoint of the response, the EC50, lay at 59.3 nM. On the same count and under the same terms, under `CC(C)(C)c1cc(NC(=O)[C@@H]2CC(=O)CN2c2ncc(C(F)(F)F)cc2Cl)no1` [(S)-1-(3-Chloro-5-trifluoromethyl-pyridin-2-yl)-4-oxo-pyrrolidine-2-carboxylic acid (5-tert-butyl-isoxazol-3-yl)-amide] stands 40.2 nM; under `CC(C)(C)c1cc(NC(=O)[C@@H]2CCCN2c2ncc(C(F)(F)F)cc2Cl)on1` [(S)-1-(3-Chloro-5-trifluoromethyl-pyridin-2-yl)-pyrrolidine-2-carboxylic acid (3-tert-butyl-isoxazol-5-yl)-amide], 0.055 nM.

Staying with this test, now noted: CHO cells expressing human CB2R; inhibition of forskolin-stimulated cAMP synthesis; mean; read-out: CB2 CAMP @ EC50 nM (mean).
Turning to `CCCc1cc(NC(=O)[C@@H]2C[C@@H](O)CN2CC2CCOCC2)on1` [(2S,4R)-4-Hydroxy-1-(tetrahydro-pyran-4-ylmethyl)-pyrrolidine-2-carboxylic acid (3-propyl-isoxazol-5-yl)-amide], the EC50 stood at 248 nM.
